Assays:
[1] = system: add_P1 (RNA, riboswitch) GGGAAGAUAUAAUCCUAAUGAUAUGGUUUGGGAGUUUCUACCAAGAGCCUUAAACUCUUGAUUAUCUUCUCUGUCGCUUUAUCCCAAAUUUUAUAAAGAGAAGACUCAUGAAU; test: ITC; settings: 100 mM KCl, 10 mM MgCl2; 10 mM HEPES, pH 7.5, room temperature
[2] = system: add_FL (RNA, riboswitch) GGGAAGAAACGCUUCAUAUAAUCCUAAUGAUAUGGUUUGGGAGUUUCUACCAAGAGCCUUAAACUCUUGAUUAUGAAGUCUGUCGCUUUAUCCCAAAUUUUAUAAAGAGAAGACUCAUGAAU; test: ITC; settings: 100 mM KCl, 10 mM MgCl2; 10 mM HEPES, pH 7.5, room temperature

- Kd [1]: 67.6 ± 0.53 nM
- Kd [2]: 90.0 ± 0.96 nM
SMILES: Nc1ncnc2[nH]cnc12
